In this assay the test system is BDF1 mice, P388 leukemia ip, median survival T/C. Nature of the assay: NCI In Vivo Anticancer Drug Screen. Data for tumor model P388 Leukemia (intraperitoneal) in B6D2F1 (BDF1) mice. To be noted: endpoint: median survival time, higher = longer survival. The gist of the method:
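Transplantable tumour in mice; compound vs vehicle dosing; survival scored; ratio of treated to control reported.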

Setting [1] is: dose: 100.0 mg/kg/injection, schedule: Q01DX009 (ip), vehicle: saline.
Setting [2] is: dose: 100.0 mg/kg/injection, schedule: Q04DX003 (ip), vehicle: saline.
Where [3] appears, read: dose: 200.0 mg/kg/injection, schedule: Q01DX009 (ip), vehicle: saline.
Where [4] appears, read: dose: 200.0 mg/kg/injection, schedule: Q04DX003 (ip), vehicle: saline.
The mark [5] stands for this setting: dose: 400.0 mg/kg/injection, schedule: Q01DX009 (ip), vehicle: saline.
Where [6] appears, read: dose: 400.0 mg/kg/injection, schedule: Q04DX003 (ip), vehicle: saline.
Setting [7] is: dose: 100.0 mg/kg/injection, schedule: Q04DX003 (ip), vehicle: saline with Tween-80.
[8] abbreviates: dose: 200.0 mg/kg/injection, schedule: Q04DX003 (ip), vehicle: saline with Tween-80.
[9] abbreviates: dose: 50.0 mg/kg/injection, schedule: Q01DX009 (ip), vehicle: saline.
[10] abbreviates: dose: 50.0 mg/kg/injection, schedule: Q01DX009 (ip), vehicle: saline with Tween-80.
[11] abbreviates: dose: 100.0 mg/kg/injection, schedule: Q01DX009 (ip), vehicle: saline with Tween-80.
Where [12] appears, read: dose: 200.0 mg/kg/injection, schedule: Q01DX009 (ip), vehicle: saline with Tween-80.
Where [13] appears, read: dose: 16.5 mg/kg/injection, schedule: Q04DX003 (ip), vehicle: saline.
Where [14] appears, read: dose: 25.0 mg/kg/injection, schedule: Q04DX003 (ip), vehicle: saline.
[15] abbreviates: dose: 25.0 mg/kg/injection, schedule: Q01DX009 (ip), vehicle: saline with Tween-80.

Several values for one entry are separate records, joined by “and”; a condition that tells them apart may be missing. Equal entries are not always repeated. Inconclusive results and toxic doses are left out.

For `COCC(O)CC#N` (stereo not drawn), the T/C was 100 % of control under setting [1]; 95 % of control under setting [2]; 87 % of control under setting [3]; 95 % of control under setting [4]; 95 % of control under setting [5]; 100 % of control under setting [6].
Regarding `COc1cc(Cc2nccc3cc(OC)c(OC)cc23)c([N+](=O)[O-])cc1OC`, the T/C is 90 % of control (dose: 100.0 mg/kg/injection, schedule: Q04DX003 (ip), vehicle: saline sonified); 95 % of control (dose: 200.0 mg/kg/injection, schedule: Q04DX003 (ip), vehicle: saline sonified); 90 % of control (dose: 400.0 mg/kg/injection, schedule: Q04DX003 (ip), vehicle: saline sonified).
As for `N#C/C1=C(\N)CCCOCCCOCCCOCCCOCCCOCC1`, the T/C was 97 % of control under setting [2] and 92 % of control under setting [4].
`CC(OC(=O)Nc1cccc(Cl)c1)C(=O)O` (stereo not drawn): the T/C was 107 % of control (dose: 100.0 mg/kg/injection, schedule: Q01DX009 (ip), vehicle: gum acacia); 96 % of control (dose: 200.0 mg/kg/injection, schedule: Q01DX009 (ip), vehicle: gum acacia); 100 % of control (dose: 400.0 mg/kg/injection, schedule: Q01DX009 (ip), vehicle: gum acacia).
In the case of `Cc1cc(C)c(C#N)c([S][Sn]([Cl])([Cl])[S]c2nc(C)cc(C)c2C#N)n1`, the T/C by setting is: under setting [7], 97 % of control; under setting [8], 98 % of control.
For the compound `CCCCCCC(N)C(C)=O` (stereo not drawn), the T/C runs as follows: under setting [9], 93 % of control; under setting [1], 95 % of control.
In the case of `CC1(C)CCC(C)(C)c2c1ccc(O)c2Sc1c(O)ccc2c1C(C)(C)CCC2(C)C`, the T/C reads like this: under setting [10], 97 % of control; under setting [11], 97 % of control and 119 % of control; under setting [12], 102 % of control and 104 % of control; (dose: 400.0 mg/kg/injection, schedule: Q01DX009 (ip), vehicle: saline with Tween-80) 93 % of control.
As to `NCC(=O)O`, the T/C reads like this: under setting [1], 95 % of control; under setting [2], 100 % of control; under setting [3], 104 % of control; under setting [4], 95 % of control; under setting [5], 95 % of control; under setting [6], 95 % of control.
Take `COc1cc2cc3c4cc5c(cc4cc[n+]3c(C)c2cc1OC)OCO5` (tested in a mixture with another compound): the T/C (dose: 1.46 mg/kg/injection, schedule: Q04DX003 (ip), vehicle: saline) is 117 % of control; the T/C under setting [13] was 150 % of control; the T/C under setting [14] was 156 % of control and 159 % of control; the T/C (dose: 44.0 mg/kg/injection, schedule: Q04DX003 (ip), vehicle: saline) was 168 % of control; the T/C (dose: 50.0 mg/kg/injection, schedule: Q04DX003 (ip), vehicle: saline) was 160 % of control; the T/C (dose: 66.0 mg/kg/injection, schedule: Q04DX003 (ip), vehicle: saline) is 177 % of control. In addition, the T/C under setting [2] is 163 % of control and 182 % of control.
For `O=C(C=C(C(F)(F)F)C(F)(F)F)c1ccccc1Cl`, the T/C runs as follows: (dose: 11.0 mg/kg/injection, schedule: Q01DX009 (ip), vehicle: saline with Tween-80) 109 % of control; (dose: 16.5 mg/kg/injection, schedule: Q01DX009 (ip), vehicle: saline with Tween-80) 118 % of control; under setting [15], 118 % of control.
For the compound `CC1(CCC(=O)/C=C/c2ccccc2)CCC/C(=C/c2ccccc2)C1=O` (stereo not drawn), the T/C was 110 % of control (dose: 12.5 mg/kg/injection, schedule: Q01DX009 (ip), vehicle: Klucel (hydroxypropylcellulose) (HPC)); 115 % of control (dose: 25.0 mg/kg/injection, schedule: Q01DX009 (ip), vehicle: Klucel (hydroxypropylcellulose) (HPC)); 110 % of control (dose: 50.0 mg/kg/injection, schedule: Q01DX009 (ip), vehicle: Klucel (hydroxypropylcellulose) (HPC)); 100 % of control (dose: 75.0 mg/kg/injection, schedule: Q01DX009 (ip), vehicle: Klucel (hydroxypropylcellulose) (HPC)); 100 % of control (dose: 115.0 mg/kg/injection, schedule: Q01DX009 (ip), vehicle: Klucel (hydroxypropylcellulose) (HPC)); 95 % of control (dose: 170.0 mg/kg/injection, schedule: Q01DX009 (ip), vehicle: Klucel (hydroxypropylcellulose) (HPC)).
As to `O=NN1CCNC1=O`, the T/C is 172 % of control (dose: 7.2 mg/kg/injection, schedule: Q04DX003 (ip), vehicle: saline); 113 % of control (dose: 10.0 mg/kg/injection, schedule: Q04DX003 (ip), vehicle: saline); 209 % of control under setting [13]; 86 % of control under setting [14]; 90 % of control (dose: 37.5 mg/kg/injection, schedule: Q04DX003 (ip), vehicle: saline).
As for `[Cl][Eu]([Cl])[Cl]`, the T/C (dose: 6.25 mg/kg/injection, schedule: Q01DX009 (ip), vehicle: saline) was 98 % of control; the T/C (dose: 12.5 mg/kg/injection, schedule: Q01DX009 (ip), vehicle: saline) is 100 % of control; the T/C (dose: 25.0 mg/kg/injection, schedule: Q01DX009 (ip), vehicle: saline) is 92 % of control; the T/C under setting [9] was 96 % of control.
As to `CCOC(=O)c1c(-c2ccccc2)cn2c1OC(C)CC2(C)C` (stereo not drawn), the T/C is, setting by setting: (dose: 50.0 mg/kg/injection, schedule: Q01DX001 (ip), vehicle: saline sonified) 100 % of control; (dose: 100.0 mg/kg/injection, schedule: Q01DX001 (ip), vehicle: saline sonified) 100 % of control; (dose: 200.0 mg/kg/injection, schedule: Q01DX001 (ip), vehicle: saline sonified) 95 % of control.
On to `C[n+]1cccc(NC(=O)c2ccc(NC(=O)c3ccc(C(=O)Nc4ccc(NC(=N)N)cc4)cc3)cc2)c1`, for which the T/C (dose: 3.3 mg/kg/injection, schedule: Q04DX003 (ip), vehicle: saline) is 150 % of control; the T/C (dose: 5.0 mg/kg/injection, schedule: Q04DX003 (ip), vehicle: saline) is 159 % of control; the T/C (dose: 5.56 mg/kg/injection, schedule: Q04DX003 (ip), vehicle: saline) is 180 % of control; the T/C (dose: 7.5 mg/kg/injection, schedule: Q04DX003 (ip), vehicle: saline) was 195 % of control; the T/C (dose: 8.33 mg/kg/injection, schedule: Q04DX003 (ip), vehicle: saline) was 235 % of control; the T/C (dose: 12.5 mg/kg/injection, schedule: Q04DX003 (ip), vehicle: saline) is 235 % of control. In addition, the T/C (dose: 18.7 mg/kg/injection, schedule: Q04DX003 (ip), vehicle: saline) is 155 % of control.
`c1ccc(OCC2CO2)cc1` (stereo not drawn): the T/C is, setting by setting: under setting [11], 108 % of control and 118 % of control; under setting [7], 110 % of control; under setting [12], 108 % of control and 112 % of control; under setting [8], 115 % of control; (dose: 400.0 mg/kg/injection, schedule: Q04DX003 (ip), vehicle: saline with Tween-80) 110 % of control.
For the compound `Cc1ccc(CBr)c2ccccc12`, the T/C was 102 % of control (dose: 6.25 mg/kg/injection, schedule: Q01DX009 (ip), vehicle: saline with Tween-80); 114 % of control (dose: 12.5 mg/kg/injection, schedule: Q01DX009 (ip), vehicle: saline with Tween-80); 124 % of control under setting [15]; 105 % of control under setting [10]; 121 % of control under setting [11].
Turning to `CC(=O)Oc1cccnc1C(C#N)C#N`, the T/C (dose: 50.0 mg/kg/injection, schedule: Q01DX005 (ip), vehicle: saline with Tween-80) was 92 % of control.
Take `CN1CCCCCC1`: the T/C reads like this: (dose: 150.0 mg/kg/injection, schedule: Q01DX009 (ip), vehicle: saline) 95 % of control; (dose: 225.0 mg/kg/injection, schedule: Q01DX009 (ip), vehicle: saline) 104 % of control; (dose: 335.0 mg/kg/injection, schedule: Q01DX009 (ip), vehicle: saline) 86 % of control.
For the compound `CC(Br)C(=O)NCC(=O)O` (stereo not drawn), the T/C runs as follows: (dose: 50.0 mg/kg/injection, schedule: Q04DX003 (ip), vehicle: saline with Tween-80) 90 % of control; under setting [7], 95 % of control; under setting [8], 100 % of control.
Consider `C=CCNC(=S)Nc1cc(Cl)ccc1C`, for which the T/C runs as follows: (dose: 50.0 mg/kg/injection, schedule: Q04DX003 (ip), vehicle: Klucel (hydroxypropylcellulose) (HPC)) 95 % of control; (dose: 100.0 mg/kg/injection, schedule: Q04DX003 (ip), vehicle: Klucel (hydroxypropylcellulose) (HPC)) 100 % of control; (dose: 200.0 mg/kg/injection, schedule: Q04DX003 (ip), vehicle: Klucel (hydroxypropylcellulose) (HPC)) 109 % of control.

Source of the values: PubChem BioAssay AID328 (DTP/NCI, 2004).
